In brackets after ≈: the same amount, converted by molar mass.
Tests used:
[1] = tested on: Mycobacterium tuberculosis; test: Antimicrobial activity against Mycobacterium tuberculosis H37Rv ATCC 27294 by microplate Almar blue assay; assay type: functional
[2] = tested on: Vero; test: Cytotoxicity against african green monkey Vero cells at after 72 hrs by MTT assay; assay type: cell-based, Chlorocebus sabaeus
[3] = tested on: Mycobacterium tuberculosis; test: Antimicrobial activity against Mycobacterium tuberculosis H37Rv ATCC 27294 at 6.25 ug/mL by broth microdilution assay; assay type: functional
[4] = Selective index, the ratio of IC50 in the african green monkey Vero cells to the MIC to Mycobacterium tuberculosis H37Rv ATCC 27294; assay type: functional
[5] = Mycobacterium tuberculosis, H37Rv ATCC 27294, read-out: MIC
[6] = Chlorocebus sabaeus, Vero, 72 h, read-out: IC50

Row | Structure (SMILES) | MIC [1, 5] [µg/mL] | IC50 [2, 6] [µg/mL] | MIC [1] [µg/mL] | IC50 ([2]; vero) [µg/mL] | inhibition at 6.25 µg/mL [3] [%] | Selectivity Index [4]
1 | NC[C@H](Cc1ccccc1)NC[C@@H]1CCCN1C[C@H](Cc1ccccc1)NC[C@H](Cc1ccccc1)NCCC12CC3CC(CC(C3)C1)C2 | 3.13 (≈ 4.73 µM) | 1.1 (≈ 1.66 µM) |  |  |  | 
2 | NC[C@H](Cc1ccc2ccccc2c1)NC[C@@H]1CCCN1C[C@H](Cc1ccccc1)NC[C@H](Cc1ccccc1)NCCc1ccccc1 | 6.25 (≈ 9.56 µM) | 4.23 (≈ 6.47 µM) |  |  |  | 
3 | CC1CCC(CN2CCN([C@@H](Cc3ccccc3)CN3CCCC3CN3CCNC[C@@H]3Cc3ccccc3)C[C@@H]2Cc2ccccc2)CC1 (some centres undefined) | 6.25 (≈ 9.44 µM) | 1.39 (≈ 2.1 µM) | 3.9 (≈ 5.89 µM) | 0.82 (≈ 1.24 µM) | 99 | 0.21
4 | NC[C@H](Cc1ccccc1)NC[C@@H]1CCCN1C[C@H](Cc1ccccc1)NC[C@H](Cc1ccccc1)NCC12CC3CC(CC(C3)C1)C2 | 6.25 (≈ 9.65 µM) |  |  |  |  | 
5 | NC[C@H](Cc1ccccc1)NC[C@@H]1CCCN1C[C@H](Cc1ccccc1)NC[C@H](Cc1ccccc1)NCC1CCCC1 | 6.25 (≈ 10.7 µM) |  |  |  |  | 
6 | NC[C@H](Cc1ccccc1)NC[C@@H]1CCCN1C[C@H](Cc1ccccc1)NC[C@H](Cc1ccccc1)NCCCC1CCCC1 | 6.25 (≈ 10.2 µM) |  |  |  |  | 
7 | NC[C@H](Cc1ccccc1)NC[C@@H]1CCCN1C[C@H](Cc1ccccc1)NC[C@H](Cc1ccccc1)NCCC1CCCCC1 | 6.25 (≈ 10.2 µM) | 1.05 (≈ 1.72 µM) |  |  |  | 
8 | CCCCCCCN[C@H](CN[C@@H](Cc1ccccc1)CN1CCC[C@H]1CN[C@H](CN)Cc1ccccc1)Cc1ccccc1 | > 6.25 |  |  |  |  | 
9 | NC[C@H](Cc1ccccc1)NC[C@@H]1CCCN1C[C@H](Cc1ccccc1)NC[C@H](Cc1ccccc1)NCCc1ccc(-c2ccccc2)cc1 | > 6.25 |  |  |  |  | 
10 | c1ccc(C[C@H]2CNCCN2C[C@@H]2CCCN2C[C@H](Cc2ccccc2)N2CCN(CC34CC5CC(CC(C5)C3)C4)[C@@H](Cc3ccccc3)C2)cc1 | 3.9 (≈ 5.57 µM) |  |  |  | 99 | 
11 | S=C1NC[C@H](Cc2ccccc2)N1C[C@@H]1CCCN1C[C@H](Cc1ccccc1)N1C[C@H](Cc2ccccc2)N(CC23CC4CC(CC(C4)C2)C3)C1=S | 6.25 (≈ 8.54 µM) |  |  |  | 98 | 
12 | N=C1NC[C@H](Cc2ccccc2)N1C[C@@H]1CCCN1C[C@H](Cc1ccccc1)N1C[C@H](Cc2ccccc2)N(CC23CC4CC(CC(C4)C2)C3)C1=N | 3.9 (≈ 5.59 µM) |  |  |  | 91 | 
13 | N=C1NC[C@H](Cc2ccccc2)N1CC1CCCN1C[C@H](Cc1ccccc1)N1C[C@H](Cc2ccccc2)N(CC2CCCCCC2)C1=N (some centres undefined) | 3.9 (≈ 5.91 µM) | 39.5 (≈ 59.8 µM) |  |  | 92 | 10.1
14 | N=C1NC[C@H](Cc2ccccc2)N1CC1CCCN1C[C@H](Cc1ccccc1)N1C[C@H](Cc2ccccc2)N(CCc2ccc(Cl)c(Cl)c2)C1=N (some centres undefined) | 3.9 (≈ 5.4 µM) | 24.5 (≈ 33.9 µM) |  |  | 95 | 6.3
15 | CCC(C)CN1C(=N)N([C@@H](Cc2ccccc2)CN2CCCC2CN2C(=N)NC[C@@H]2Cc2ccccc2)C[C@@H]1Cc1ccccc1 (some centres undefined) | 7.8 (≈ 12.6 µM) | 36.8 (≈ 59.3 µM) |  |  | 90 | 4.7
16 | N=C1NC[C@H](Cc2ccccc2)N1CC1CCCN1C[C@H](Cc1ccccc1)N1C[C@H](Cc2ccccc2)N(CC2CCCC2)C1=N (some centres undefined) | 7.8 (≈ 12.3 µM) | 33.5 (≈ 53.1 µM) |  |  | 93 | 4.3
17 | CC(C)CCCN1C(=N)N([C@@H](Cc2ccccc2)CN2CCCC2CN2C(=N)NC[C@@H]2Cc2ccccc2)C[C@@H]1Cc1ccccc1 (some centres undefined) | 7.8 (≈ 12.3 µM) | 31 (≈ 48.9 µM) |  |  | 93 | 3.97
18 | N=C1NC[C@H](Cc2ccccc2)N1CC1CCCN1C[C@H](Cc1ccccc1)N1C[C@H](Cc2ccccc2)N(CCC23CC4CC(CC(C4)C2)C3)C1=N (some centres undefined) | 3.9 (≈ 5.48 µM) | 14.5 (≈ 20.3 µM) |  |  | 91 | 3.7
19 | N=C1NC[C@H](Cc2ccccc2)N1CC1CCCN1C[C@H](Cc1ccccc1)N1C[C@H](Cc2ccccc2)N(CCCCC2CCCCC2)C1=N (some centres undefined) | 3.9 (≈ 5.67 µM) | 14.3 (≈ 20.8 µM) |  |  | 91 | 3.7

Row | Structure (SMILES) | MIC [1, 5] [µg/mL] | IC50 [2, 6] [µg/mL] | MIC [1] [µg/mL] | IC50 ([2]; vero) [µg/mL] | inhibition at 6.25 µg/mL [3] [%] | Selectivity Index [4]
20 | N=C1NC[C@H](Cc2ccccc2)N1CC1CCCN1C[C@H](Cc1ccccc1)N1C[C@H](Cc2ccccc2)N(CCC2CCCCC2)C1=N (some centres undefined) | 3.9 (≈ 5.91 µM) | 13.9 (≈ 21.1 µM) |  |  | 94 | 3.8
21 | N=C1NC[C@H](Cc2ccccc2)N1CC1CCCN1C[C@H](Cc1ccccc1)N1C[C@H](Cc2ccccc2)N(CCC2CC3CCC2C3)C1=N (some centres undefined) | 7.8 (≈ 11.6 µM) | 15.5 (≈ 23 µM) |  |  | 94 | 1.98
22 | CC(C)(C)C1CCC(CN2C(=N)N([C@@H](Cc3ccccc3)CN3CCCC3CN3C(=N)NC[C@@H]3Cc3ccccc3)C[C@@H]2Cc2ccccc2)CC1 (some centres undefined) | 7.8 (≈ 11.1 µM) | 15.2 (≈ 21.7 µM) |  |  | 94 | 1.95
23 | S=C1NC[C@H](Cc2ccccc2)N1CC1CCCN1C[C@H](Cc1ccccc1)N1C[C@H](Cc2ccccc2)N(CC2CCCCC2)C1=S (some centres undefined) | 3.9 (≈ 5.73 µM) | 8.47 (≈ 12.5 µM) |  |  | 97 | 2.2
24 | CC(C)[C@H]1CNC(=S)N1CC1CCCN1C[C@H](Cc1ccccc1)N1C[C@H](Cc2ccccc2)N(CCc2ccccc2)C1=S (some centres undefined) |  |  |  |  | 90 | 
25 | c1ccc(CCN2CCN([C@@H](CC3CCCCC3)CN3CCCC3CN3CCNC[C@@H]3Cc3ccccc3)C[C@@H]2Cc2ccccc2)cc1 (some centres undefined) | 2 (≈ 3.02 µM) | 0.99 (≈ 1.5 µM) |  |  | 100 | 0.5
26 | c1ccc(C[C@H]2CNCCN2CC2CCCN2C[C@H](Cc2ccccc2)N2CCN(CCCCC3CCCCC3)[C@@H](Cc3ccccc3)C2)cc1 (some centres undefined) | 2 (≈ 2.9 µM) | 1 (≈ 1.45 µM) |  |  | 99 | 0.5
27 | c1ccc(C[C@H]2CNCCN2CC2CCCN2C[C@H](Cc2ccccc2)N2CCN(CC34CC5CC(CC(C5)C3)C4)[C@@H](Cc3ccccc3)C2)cc1 (some centres undefined) | 2 (≈ 2.86 µM) | 0.97 (≈ 1.39 µM) |  |  | 97 | 0.49
28 | c1ccc(C[C@H]2CNCCN2CC2CCCN2C[C@H](Cc2ccccc2)N2CCN(CCCC3CCCCC3)[C@@H](Cc3ccccc3)C2)cc1 (some centres undefined) | 2 (≈ 2.96 µM) | 0.94 (≈ 1.39 µM) |  |  | 99 | 0.47
29 | CC(C)CCCN1CCN([C@@H](Cc2ccccc2)CN2CCCC2CN2CCNC[C@@H]2Cc2ccccc2)C[C@@H]1Cc1ccccc1 (some centres undefined) | 2 (≈ 3.14 µM) | 0.89 (≈ 1.4 µM) |  |  | 99 | 0.45
30 | Brc1cccc(CCCN2CCN([C@@H](Cc3ccccc3)CN3CCCC3CN3CCNC[C@@H]3Cc3ccccc3)C[C@@H]2Cc2ccccc2)c1 (some centres undefined) | 3.9 (≈ 5.21 µM) | 1.12 (≈ 1.5 µM) |  |  | 99 | 0.29
31 | FC(F)(F)c1cccc(CCN2CCN([C@@H](Cc3ccccc3)CN3CCCC3CN3CCNC[C@@H]3Cc3ccccc3)C[C@@H]2Cc2ccccc2)c1 (some centres undefined) | 3.9 (≈ 5.39 µM) | 1.12 (≈ 1.55 µM) |  |  | 99 | 0.29
32 | Oc1ccc(CCN2CCN([C@@H](Cc3ccccc3)CN3CCCC3CN3CCNC[C@@H]3Cc3ccccc3)C[C@@H]2Cc2ccccc2)cc1 (some centres undefined) | 3.9 (≈ 5.8 µM) | 1.11 (≈ 1.65 µM) |  |  | 99 | 0.28
33 | Cc1cccc(CCN2CCN([C@@H](Cc3ccccc3)CN3CCCC3CN3CCNC[C@@H]3Cc3ccccc3)C[C@@H]2Cc2ccccc2)c1 (some centres undefined) | 3.9 (≈ 5.82 µM) | 1.05 (≈ 1.57 µM) |  |  | 99 | 0.27
34 | NC[C@H](Cc1ccccc1)NC[C@@H]1CCCN1C[C@H](Cc1ccccc1)NC[C@H](Cc1ccccc1)NCCCC1CCCCC1 | 3.13 (≈ 5.02 µM) |  |  |  | 99 | 
35 | CCC(C)CCN1C(=N)N([C@@H](Cc2ccccc2)CN2CCCC2CN2C(=N)NC[C@@H]2Cc2ccccc2)C[C@@H]1Cc1ccccc1 (some centres undefined) | 7.8 (≈ 12.3 µM) | 32.3 (≈ 50.9 µM) |  |  | 91 | 4.1
36 | CC(C)(C)C1CCC(CN2CCN([C@@H](Cc3ccccc3)CN3CCCC3CN3CCNC[C@@H]3Cc3ccccc3)C[C@@H]2Cc2ccccc2)CC1 (some centres undefined) | 2 (≈ 2.84 µM) | 1.15 (≈ 1.63 µM) |  |  | 97 | 0.58
37 | OCC(CN1CCN([C@@H](Cc2ccccc2)CN2CCCC2CN2CCNC[C@@H]2Cc2ccccc2)C[C@@H]1Cc1ccccc1)c1ccccc1 (some centres undefined) | 20 (≈ 29.2 µM) | 1.08 (≈ 1.57 µM) |  |  | 99 | 
38 | NC[C@H](Cc1ccccc1)NC[C@@H]1CCCN1C[C@H](Cc1ccccc1)NC[C@H](Cc1ccccc1)NCCC1CC2CCC1C2 (some centres undefined) | 3.13 (≈ 5.03 µM) | 1.03 (≈ 1.66 µM) |  |  |  | 

Reference: ChEMBL document CHEMBL1153803, “Parallel synthesis of chiral pentaamines and pyrrolidine containing bis-heterocyclic libraries. Multiple scaffolds with multiple building blocks: a double diversity for the identification of new antitubercular compounds” (Bioorg Med Chem Lett, 2009)
